Reference: patent US11498899B2, “Nitrone herbicides” (FMC Corporation, priority 2016, dated 2022)

Assays:
[1] = test system: ryegrass, Italian (Italian ryegrass, Lolium multiflorum); assay: Test A preemergence, visual injury rating 0-100; type: in vivo
[2] = test system: foxtail, giant (giant foxtail, Setaria faberii); assay: Test A preemergence, visual injury rating 0-100; type: in vivo
[3] = test system: ragweed (common ragweed, Ambrosia elatior); assay: Test A preemergence, visual injury rating 0-100; type: in vivo
[4] = test system: pigweed (Amaranthus retroflexus); assay: Test A preemergence, visual injury rating 0-100; type: in vivo
kochia (Kochia scoparia) [5] = assay: Test A preemergence, visual injury rating 0-100; type: in vivo
[6] = test system: barnyardgrass (Echinochloa crus-galli); assay: Test A postemergence, visual injury rating 0-100; type: in vivo; details: 0 to 100 scale
[7] = test system: ryegrass, Italian (Italian ryegrass, Lolium multiflorum); assay: Test A postemergence, visual injury rating 0-100; type: in vivo; details: 0 to 100 scale
[8] = test system: foxtail, giant (giant foxtail, Setaria faberii); assay: Test A postemergence, visual injury rating 0-100; type: in vivo; details: 0 to 100 scale
[9] = test system: wheat (Triticum aestivum); assay: Test A postemergence, visual injury rating 0-100; type: in vivo; details: 0 to 100 scale
corn (Zea mays) = assay: Test A postemergence, visual injury rating 0-100; type: in vivo; details: 0 to 100 scale
[10] = test system: blackgrass (Alopecurus myosuroides); assay: Test A postemergence, visual injury rating 0-100; type: in vivo; details: 0 to 100 scale
[11] = test system: ragweed (common ragweed, Ambrosia elatior); assay: Test A postemergence, visual injury rating 0-100; type: in vivo; details: 0 to 100 scale
[12] = test system: galium (catchweed bedstraw, Galium aparine); assay: Test A postemergence, visual injury rating 0-100; type: in vivo; details: 0 to 100 scale
[13] = test system: pigweed (Amaranthus retroflexus); assay: Test A postemergence, visual injury rating 0-100; type: in vivo; details: 0 to 100 scale
kochia (Kochia scoparia) [14] = assay: Test A postemergence, visual injury rating 0-100; type: in vivo; details: 0 to 100 scale
rice (Oryza sativa) = assay: Test B flooded paddy test, visual rating 0-100 (0 no effect, 100 complete control); details: Flood, 250 g ai/ha, applied to paddy water, rated after 13 to 15 days
[15] = test system: ducksalad (Heteranthera limosa); assay: Test B flooded paddy test, visual rating 0-100; details: Flood, 250 g ai/ha, applied to paddy water, rated after 13 to 15 days
[16] = test system: barnyardgrass (Echinochloa crus-galli); assay: Test B flooded paddy test, visual rating 0-100; details: Flood, 250 g ai/ha, applied to paddy water, rated after 13 to 15 days
[17] = test system: barnyardgrass (Echinochloa crus-galli); assay: Test A preemergence, visual injury rating 0-100 (0 no effect, 100 complete control); type: in vivo

| SMILES | Ryegrass, Italian plant response rating (0 to 100 scale) ([1]; 125 g ai/ha) | Ryegrass, Italian plant response rating (0 to 100 scale) ([1]; 500 g ai/ha) | Foxtail, Giant plant response rating (0 to 100 scale) ([2]; 125 g ai/ha) | Foxtail, Giant plant response rating (0 to 100 scale) ([2]; 500 g ai/ha) | Ragweed plant response rating (0 to 100 scale) ([3]; 125 g ai/ha) | Ragweed plant response rating (0 to 100 scale) ([3]; 500 g ai/ha) | Pigweed plant response rating (0 to 100 scale) ([4]; 125 g ai/ha) | Pigweed plant response rating (0 to 100 scale) ([4]; 500 g ai/ha) | Kochia plant response rating (0 to 100 scale) (kochia (Kochia scoparia) [5]; 125 g ai/ha) | Kochia plant response rating (0 to 100 scale) (kochia (Kochia scoparia) [5]; 500 g ai/ha) | Barnyardgrass plant response rating ([6]; 125 g ai/ha) | Barnyardgrass plant response rating ([6]; 500 g ai/ha) | Ryegrass, Italian plant response rating ([7]; 125 g ai/ha) | Ryegrass, Italian plant response rating ([7]; 500 g ai/ha) | Foxtail, Giant plant response rating ([8]; 125 g ai/ha) | Foxtail, Giant plant response rating ([8]; 500 g ai/ha) | Wheat plant response rating ([9]; 125 g ai/ha) | Wheat plant response rating ([9]; 500 g ai/ha) | Corn plant response rating (corn (Zea mays); 125 g ai/ha) | Corn plant response rating (corn (Zea mays); 500 g ai/ha) | also measured |
| --- | --- | --- | --- | --- | --- | --- | --- | --- | --- | --- | --- | --- | --- | --- | --- | --- | --- | --- | --- | --- | --- |
| CC1=[N+]([O-])C(C(=O)Nc2cccc(F)c2F)C(c2ccc(F)c(Oc3ncc(F)cn3)c2)C1 (racemic) [Compound 52] | 80 | 90 | 80 | 100 | 0 | 60 | 0 | 70 | 0 | 20 | 30 | 70 | 20 | 60 | 0 | 90 | 10 | 70 | 0 | 70 | Blackgrass plant response rating ([10]; 125 g ai/ha): 30; Blackgrass plant response rating ([10]; 500 g ai/ha): 70; Ragweed plant response rating ([11]; 125 g ai/ha): 0; Ragweed plant response rating ([11]; 500 g ai/ha): 30; Galium plant response rating ([12]; 125 g ai/ha): 20; Galium plant response rating ([12]; 500 g ai/ha): 70; Pigweed plant response rating ([13]; 125 g ai/ha): 0; Pigweed plant response rating ([13]; 500 g ai/ha): 0; Kochia plant response rating (kochia (Kochia scoparia) [14]; 125 g ai/ha): 0; Kochia plant response rating (kochia (Kochia scoparia) [14]; 500 g ai/ha): 20; Rice plant response rating (0 to 100 scale) (rice (Oryza sativa)): 0; Ducksalad plant response rating (0 to 100 scale) [15]: 0; Barnyardgrass plant response rating (0 to 100 scale) [16]: 0; Barnyardgrass plant response rating (0 to 100 scale) ([17]; 125 g ai/ha): 90; Barnyardgrass plant response rating (0 to 100 scale) ([17]; 500 g ai/ha): 100 |
| CC1=[N+]([O-])C(C(=O)Nc2cccc(F)c2F)C(c2cccc(Oc3ccc(Cl)cn3)c2)C1 (racemic) [Compound 56] | 60 | 70 | 60 | 90 | 0 | 0 | 0 | 0 | 0 | 0 | 20 | 60 | 50 | 80 | 40 | 40 | 20 | 40 | 0 | 40 | Blackgrass plant response rating ([10]; 125 g ai/ha): 70; Blackgrass plant response rating ([10]; 500 g ai/ha): 80; Ragweed plant response rating ([11]; 125 g ai/ha): 0; Ragweed plant response rating ([11]; 500 g ai/ha): 20; Galium plant response rating ([12]; 125 g ai/ha): 30; Galium plant response rating ([12]; 500 g ai/ha): 50; Pigweed plant response rating ([13]; 125 g ai/ha): 0; Pigweed plant response rating ([13]; 500 g ai/ha): 30; Kochia plant response rating (kochia (Kochia scoparia) [14]; 125 g ai/ha): 10; Kochia plant response rating (kochia (Kochia scoparia) [14]; 500 g ai/ha): 20; Rice plant response rating (0 to 100 scale) (rice (Oryza sativa)): 0; Ducksalad plant response rating (0 to 100 scale) [15]: 40; Barnyardgrass plant response rating (0 to 100 scale) [16]: 25; Barnyardgrass plant response rating (0 to 100 scale) ([17]; 125 g ai/ha): 10; Barnyardgrass plant response rating (0 to 100 scale) ([17]; 500 g ai/ha): 90 |
